Experimental data reported in US20230099567A1, “COMPOSITION FOR TREATMENT, PREVENTION, OR AMELIORATION OF LYMPHEDEMA” (RAPPELER CO., LTD., priority 2020, published 2023).
Values after ≈ are worked out from the molar mass of the structure shown. Like-named read-outs stand apart in the source and are kept apart here.

Legend:
[1] = tested on: PPARγ and a target protein Fabp4; assay: Expression of PPARγ and Fabp4 in lymphedema tissue (western blot, mRNA); assay type: in vivo; details: mouse
[2] = tested on: LPS-induced TNFα production in mouse peritoneal macrophages; assay: LPS-induced TNFα production in mouse peritoneal macrophages (ELISA); assay type: cell-based; details: Mus musculus, Peritoneal macrophage, 24 h, mouse peritoneal macrophages, 100 ng/ml LPS 24 h; measured twice, mean ± standard deviation; read-out: IC50, dose-dependent inhibition of TNFα production in macrophages
Description: To isolate peritoneal macrophages, male Balb/c mice were intraperitoneally injected with 2 ml of 3.5% sterile thioglycolate (B D, Sparks, Md., USA) 4 days before being sacrificed. Mice were sacrificed by cervical dislocation, and peritoneal secretory cells were aseptically isolated through peritoneal washing with cold DMEM (HyClone, Logan, Utah, USA) containing 10% FBS (fetal bovine serum; HyClone) and 1% penicillin-streptomycin. After centrifugation, cells were resuspended and counted using a TC20 Cell Counter (Bio-Rad Laboratories, Hercules, Calif., USA). Peritoneal secretory cells were left in a 24-well plate overnight at 37° C., and non-adherent cells were removed. The cells were then stimulated with 100 ng/ml lipopolysaccharide (LPS) for 24 hours. The supernatant was collected during cytokine analysis, and the level of TNFα in the supernatant was measured using BD OptEIA mouse ELISA sets (BD Biosciences, San Diego, Calif., USA) according to the manufacturer's protocol. […] IC50 (μM) values were measured twice, respectively, and expressed as mean±standard deviation.

PPARγ = assay: Immunofluorescence staining of PPARγ in epidermal layer of lymphedema tissue; assay type: in vivo; details: mouse
Excerpt: (§1) Tissue samples were collected on the 7th day after surgery to induce lymphedema at a location 15 mm-25 mm from the right leg of the mouse. The harvested tissue samples were fixed with 10% formalin solution, and the specimens were cut to a thickness of 5 μm. Sections were deparaffinized in 100% xylene, rehydrated with a series of 100% ethanol, 95% ethanol, 90% ethanol, 80% ethanol, and 70% ethanol, and washed with water. Sections were reacted with hematoxylin solution at room temperature. After washing in PBS, sections were stained with eosin at room temperature. Images were acquired by a Pannoramic viewer microscope (3[…] Ltd., Hungary). Prepared slides were incubated using anti-mouse PPARγ (Santa Cruz Biotechnology, USA) and Alexa Fluor 488 and DAPI (Life Technologies, USA). Samples were analyzed using a Nikon ECLIPSE 80i microscope (Nikon Instruments Inc., Japan).
In addition, peroxisome […] (PPARγ) is a major regulator of lipogenesis, and as shown in FIG. 4B showing the results of immunofluorescence staining, the distribution of PPARγ in the epidermal layer of lymphedema tissue after treatment with compound 1 and compound 14a was suppressed.

lymphedema tissue = assay: Histological (H&E) analysis of lymphedema tissue of the right hind leg; assay type: in vivo; details: 7th day after surgery, right hind leg of mouse
Excerpt: as §1
In FIG. 3A, the scale bar of the upper panel is 500 μm, and the scale bar of the lower panel is 100 μm.
In FIG. 4A, the scale bar of the upper panel is 200 μm, and the scale bar of the lower panel is 100 μm.

[3] = Physicochemical properties (pKa, logP, solubility)
Excerpt: Compound 1 is butein and the therapeutic effect on lymphedema thereof is disclosed in Korean Patent Publication No. 10-1533197 (published on Jul. 2, 2015).

[4] = Pharmacokinetic analysis in mice after I.V. and oral administration; assay type: in vivo, mouse; details: male CD-1 mice; for Cmax: read-out: Cmax (maximum plasma concentration)
Description: Compounds were administered to 5-week-old male CD-1 mice through 1 mg/kg tail vein administration (administration volume of 5 mL/kg), 20 mg/kg oral administration, and 100 mg/kg oral administration, respectively. Three mice were used for each independent experiment. Blood samples were taken in an amount of 20 μL to 30 μL via the saphenous vein at 5, 15, 30, 60, 120, 180, 360, and 1440 minutes.
In addition, pharmacokinetic parameters were calculated from non-compartmental analysis using Win Non-lin.
In Table 3, T1/2 denotes the terminal half-life, Cmax denotes the maximum plasma concentration, AUC-O denotes the area under the plasma concentration-time curve from time zero to infinity, and indicates exposure concentration of whole blood, and BA represents bioavailability expressed as (AUCpo/AUCiv)×100. […] Cmax and AUC∞ are mean±SD values obtained from three male ICR mice. Regarding blood exposure during systemic circulation of the compound, the compound was orally administered at an amount of 100 mg/kg, and then, AUC (area under the curve) was measured, and the obtained measurements were compared.

[5] = tested on: lymphedema induced in mice; assay: Prophylactic effect on lymphedema formation, surgically induced murine lymphedema model (volume); assay type: in vivo, mouse; details: 7th day after surgery, oral administration 7 days before surgery, then once every two days, vs control group
Description: All animal tests in the following examples were performed after obtaining approvals by the Institutional Animal Care and Use Committee (IACUC) of Sungkyunkwan University School of Medicine (Approval No.: […]-20150037). All methods were performed according to the approved guidelines. […] Briefly, major lymphatic sites including inguinal lymph nodes, popliteal lymph nodes, deep inguinal lymph nodes and femoral lymphatic vessels were removed, and the lower right leg of the mouse was limitedly cauterized under anesthesia.
Compounds 1, 7m, and 14a were each orally administered to mice for 7 days before surgical induction of lymphedema in mice.
On the other hand, in the control group, the compound 1 treatment group, the compound 7m treatment group, and the compound 14a treatment group, lymphedema was induced through surgery. After surgery, the compounds were administered once every two days.
The volume of lymphedema was measured on the 7th day after surgery, and the size of the lymphedema was recorded using a caliper ruler by a person who was blinded to the treatment status of the mice.

TNFα = assay: mRNA expression of TNFα in lymphedema tissue; assay type: in vivo; details: 7th day after surgery, mouse
Excerpt: As a result, it was confirmed that the expression level of TNFα mRNA was decreased in the compound 1 treatment group and the compound 14a treatment group (with respect to the control group, *: P<0.05; with respect to compound 1, #: P<0.05).

[6] = mouse, plasma, iv, I.V, 1 mg/Kg
[7] = mouse, plasma, po, P.O, 20 mg/Kg

melting point: 204.9 °C | IC50 [2]: 14.6 ± 1.56 µM | logP (partition coefficient) [3]: 3.47 | solubility ([3]; water solubility, read-out: Solubility): 136 µg/mL (≈ 361 µM) | T1/2 (terminal half-life) ([4]; I.V, 1 mg/Kg): 81.6 min | Tmax ([4]; I.V, 1 mg/Kg): 12 min | T1/2 (terminal half-life) ([4]; P.O, 20 mg/Kg): 34.2 min | Tmax ([4]; P.O, 20 mg/Kg): 24 min | Cmax (maximum plasma concentration) ([4]; P.O, 100 mg/Kg): 1600 ng/mL | T1/2 (terminal half-life) ([4]; P.O, 100 mg/Kg): 21 min | Tmax ([4]; P.O, 100 mg/Kg): 24 min | BA (bioavailability) ([4]; P.O, 100 mg/Kg, (AUCpo/AUCiv)×100): 7.5% | AUC(0-inf) [4, 6]: 163 ng·h/mL | Cmax [4, 6]: 110 ng/mL | AUC(0-inf) [4, 7]: 141 ng·h/mL | bioavailability ([4]; mouse, plasma, po, P.O, 20 mg/Kg, (AUCpo/AUCiv)×100, read-out: BA (bioavailability)): 4% | Cmax [4, 7]: 83 ng/mL
SMILES: O=C(Oc1cc(O)ccc1C(=O)/C=C/c1ccc(O)c(O)c1)c1ccccc1 [compound 14a, (E)-2-(3-(3,4-dihydroxyphenyl)acryloyl)-5-hydroxyphenyl benzoate]
levels of PPARγ and Fabp4 mRNA (FIG. 4D) ([1]; lymphedema tissue): more significant efficacy even compared to compound 1 | expression of PPARγ and Fabp4 in lymphedema tissue (western blot, FIG. 4C) [1]: reduced the expression of PPARγ | distribution of PPARγ in the epidermal layer of lymphedema tissue (FIG. 4B) (PPARγ): suppressed | development of adipose tissue in the epidermal layer (H&E, FIG. 4A) (lymphedema tissue): inhibiting the development of adipose tissue in the epidermal layer | neutrophil infiltration and epidermal layer of lymphedema tissue (H&E, FIG. 3A) (lymphedema tissue): decreased neutrophil infiltration and ameliorated the epidermal layer of lymphedema tissue | volume of lymphedema reduced by [5]: 70% | expression level of TNFα mRNA in lymphedema tissue (FIG. 3B) (TNFα): decreased
